{"source": "patent US20210085467A1", "about": "“SELECTIVE TARGETED RELEASE” (WEST VIRGINIA UNIVERSITY, priority 2018, published 2021)", "key": {"free floating bacteria": {"system": "free floating bacteria", "experiment": "Drug levels necessary to treat free floating bacteria", "conditions": "planktonic bacteria"}, "biofilm infections": {"system": "biofilm infections", "experiment": "Drug levels necessary to treat biofilm infections"}}}
{"compound": "CN[C@H](CC(C)C)C(=O)N[C@H]1C(=O)N[C@@H](CC(N)=O)C(=O)N[C@H]2C(=O)N[C@H]3C(=O)N[C@H](C(=O)N[C@H](C(=O)O)c4cc(O)cc(O)c4-c4cc3ccc4O)[C@H](O)c3ccc(c(Cl)c3)Oc3cc2cc(c3O[C@@H]2O[C@H](CO)[C@@H](O)[C@H](O)[C@H]2O[C@H]2C[C@](C)(N)[C@H](O)[C@H](C)O2)Oc2ccc(cc2Cl)[C@H]1O", "note": "[vancomycin]", "values": [{"measurement": "drug levels necessary to treat free floating bacteria", "setting": "free floating bacteria", "value": "1 to 10", "unit": "µg/mL"}, {"measurement": "drug levels necessary to treat biofilm infections", "setting": "biofilm infections", "value": "10 to 100", "unit": "µg/mL"}]}
